Experimental data reported in US20120065165A1, “COMPOSITIONS AND METHODS OF TREATING ENDOTHELIAL DISORDERS” (ARGINETIX, INC, priority 2008, published 2012).

Tests used:
[1] = tested on: rat aortic tissues; test: cGMP levels in aortic rings of old rats incubated with sildenafil and ABH (cGMP EIA); format: cell-based; conditions: sildenafil 0 nM
Method: The source of tissue was old (22 to 24 months) male Fischer 344 rats purchased from National Institute for Aging (NIA). The rats were anesthetized in an isoflurane chamber and euthanized. The entire length of the aorta (thoracic, arch, abdominal) were dissected out and cleaned free of connective tissue. These aorta were then sectioned into ˜3 mm long rings. Samples were collected from 2 rats and pooled. […] Rings were incubated in varying concentrations of sildenafil (0-2000 nM) and ABH (0-500 nM) prepared in 200 μL Krebs buffer for 10 min at 37° C. The rings were then snap frozen in liquid nitrogen following treatment. The next day, samples were homogenized in 200 μL 6% TCA buffer (prepared by adding TCA to DI water) at 4° C. for extraction of cyclic nucleotides. The samples were then centrifuged at 12,000 rpm for 5 min at 4° C. Protein pellets were re-dissolved in PBS to determine protein concentration, and supernatant was reserved for cGMP detection. […] ABH (MW 211.45): A stock solution of ABH at a concentration of 100 mM was prepared by dissolving 21.1 mg of ABH into 1 ml Krebs solution. This was used to prepare 5 ml of a 1 mM stock. 200 μL of the 1 mM solution were dispensed into column 12 of a 96-well plate. Six 2× dilutions were prepared in the plate. 200 μL Krebs were dispensed in column 5 to get a concentration range of 0-1000 nM (2× of final concentration). Sildenafil (MW 474.5): A stock solution of sildenafil at a concentartion of 100 mM was prepared by dissolving 47.4 mg of sildenafil into 1 ml Krebs solution; 5 ml of 2 mM stock was prepared from this. Row A received 200 μL of Krebs buffer (0 mM sildenafil), mixed well, and adjusted to a final volume of 200 μL. Next, 200 μL of the 2 mM sildenafil stock was dispensed into row H of the 96 well plate already containing the ABH dilutions ([…]). Six 2× dilutions were prepared from this to get the final concentration ranges for the two drugs. cGMP levels were determined with a cGMP kit (Amersham cGMP Enzyme immunoassay Biotrak (EIA) System Cat #RPN226) and run in accordance with the manufacture's recommendations. The assay uses a competitive fluorescent immunoassay format to measure levels of cGMP. It combines the use of a peroxidase-labelled cGMP conjugate, a specific antiserum which can be immobilized on to pre-coated microplates, and a one-pot stabilized substrate solution. […] In the absence of cGMP most of the HRP conjugate is bound to the antibody and yields a high fluorescence. Increasing concentrations of cGMP competitively decreases the binding of the HRP conjugate, decreasing the measured fluorescence (HRP activity). […] The plate was then incubated for 2 hrs at room temperature with shaking after which it is washed and the fluorescent substrate is added. The plate was incubated for an additional 10 min and then read on a Molecular Devices Gemini EM plate reader set at Ex 530 nm, Em 590 nm (endpoint mode). The signal is reported to be stable for up to 24 hrs, but was generally read within 2 hrs. […] These values were calculated based on the resultant ratio of fluorescence reading of sample divided by fluorescense reading with no cGMP (pmols/mg). For each concentration combination of sildenafil and ABH administered to cells, absorbance (OD at 450 nm) was measured. From these values, the absorbance adjusted for non-specific binding (NSB) for each sample (OD-NSB(B)) was determined from the absorbance (B) divided by the absorbance without cGMP (Bo). Using this value and the standard curve for cGMP, the log (fmol) is found and, after adjusting for the quantity of protein, the pmols of cGMP/mg protein is calculated.

[2] = tested on: diabetic ZDF rats; test: Oral ABH in type 2 diabetic ZDF rats: vascular and erectile function (Example 7); format: in vivo, rat
Text: The effects of ABH in the ZDF rat model of type 2 diabetes after systemic in vivo administration is investigated as described below. […] Given the similarities in indicators of vascular dysfunction between aged rats and diabetic animals and humans with respect to elevated arginase and decreased NO the prediction is that orally-administered ABH will result in similar improvements in vascular and erectile function in the type 2 diabetic ZDF rats. […] ABH is hypothesized to inhibit pathologically elevated vascular arginase, restore normal eNOS coupling, and enhance both erectile and vascular endothelial function. […]
ZDF rats are made diabetic by feeding a high-fat diet, while a cohort of ZLC rats are fed a normal diet. […] Aortic PWV is calculated as the separation distance divided by the difference in arrival times of the rat's pulse, with respect to the R-peak of the electrocardiogram (ECG), reported in meters per second (m/s).
At the end of the 4 week treatment period, erectile function is determined in vivo. […] Erectile response to electrical field stimulation (neurogenic response) is measured by catheterizing the right crus, and connecting it to a pressure transducer to permit continuous measurement of intracavernosal pressure (ICP). […] The erectile response (ICP) to injections of […] is determined. ICP is monitored during ACh administration, and until it returns to baseline. […]

N[C@@H](CCCCB(O)O)C(=O)O [ABH, 2(S)-Amino-6-boronohexanoic acid]
Theoretical response T(x,y) based on an additive effect ([1]; ABH 7.81 nM): 0.34 pmol/mg
pmols of cGMP/mg protein produced P(x,y) ([1]; ABH 7.81 nM): 0.34 pmols/mg
Theoretical response T(x,y) based on an additive effect ([1]; ABH 31.25 nM): 0.90 pmol/mg
pmols of cGMP/mg protein produced P(x,y) ([1]; ABH 31.25 nM): 0.90 pmols/mg
Theoretical response T(x,y) based on an additive effect ([1]; ABH 125 nM): 1.14 pmol/mg
pmols of cGMP/mg protein produced P(x,y) ([1]; ABH 125 nM): 1.14 pmols/mg
Theoretical response T(x,y) based on an additive effect ([1]; ABH 500 nM): 0.16 pmol/mg
pmols of cGMP/mg protein produced P(x,y) ([1]; ABH 500 nM): 0.16 pmols/mg
vascular arginase activity and vascular ROS concentration ([2]; ABH orally four weeks, vs untreated diabetic ZDF rats): significant decreases
in vivo erectile function, pulse wave velocity and ex vivo vasorelaxation ([2]; ABH orally in drinking water four weeks, vs untreated ZDF rats): significant improvements
